Reference: ChEMBL document CHEMBL5316346, “Targeting Melanocortin Receptors Using SNAr-Type Macrocyclization: A Doubly Orthogonal Route to Cyclic Peptide Conjugates” (J Med Chem, 2023)
pEC50, pKi: −log10 of the molar value.

How the values were obtained:
Melanocortin receptor 5 [1] = target: T1, Melanocortin receptor 5 (Homo sapiens, UniProt P33032); experiment: Agonist activity at human MC5R stably expressed in human Flp-In-293 cells assessed as cAMP accumulation at 1 uM incubated for 45 mins in presence of IBMX by Lance Ultra cAMP assay; format: functional, cell-based
Melanocortin receptor 4 [2] = target: T2, Melanocortin receptor 4 (Homo sapiens, UniProt P32245); experiment: Agonist activity at human MC4R stably expressed in human Flp-In-293 cells assessed as cAMP accumulation incubated for 45 mins in presence of IBMX by Lance Ultra cAMP assay; format: functional, cell-based; conditions: for EC50: read-out: pEC50 (converted)
[3] = target: T3, Melanocyte-stimulating hormone receptor (Homo sapiens, UniProt Q01726); experiment: Agonist activity at human MC1R stably expressed in human Flp-In-293 cells assessed as cAMP accumulation incubated for 45 mins in presence of IBMX by Lance Ultra cAMP assay; format: functional, cell-based; conditions: for EC50: read-out: pEC50 (converted)
Target sequence in this assay (Q01726 whole entry): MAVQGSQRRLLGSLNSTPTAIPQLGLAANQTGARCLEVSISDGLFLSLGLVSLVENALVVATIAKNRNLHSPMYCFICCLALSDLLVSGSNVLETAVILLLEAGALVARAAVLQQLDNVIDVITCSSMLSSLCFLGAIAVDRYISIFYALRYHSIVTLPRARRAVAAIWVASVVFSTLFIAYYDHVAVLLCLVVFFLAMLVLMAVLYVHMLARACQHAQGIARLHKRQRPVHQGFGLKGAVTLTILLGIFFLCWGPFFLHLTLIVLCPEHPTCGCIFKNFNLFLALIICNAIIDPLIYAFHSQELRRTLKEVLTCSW

Melanocortin receptor 3 [4] = target: T4, Melanocortin receptor 3 (Homo sapiens, UniProt P41968); experiment: Agonist activity at human MC3R stably expressed in human Flp-In-293 cells assessed as cAMP accumulation at 1 uM incubated for 45 mins in presence of IBMX by Lance Ultra cAMP assay; format: functional, cell-based; conditions: filed as agonist
Melanocortin receptor 3 [5] = target: T4, Melanocortin receptor 3; experiment: Displacement of sCy5-MT-I from human MC3R stably expressed in human HEK293 cells incubated for 2 hrs by Cheng-Prusoff equation based FACS analysis; format: cell-based
[6] = target: T3, Melanocyte-stimulating hormone receptor; experiment: Displacement of sCy5-MT-I from human MC1R stably expressed in human HEK293 cells incubated for 2 hrs by Cheng-Prusoff equation based FACS analysis; format: cell-based
Target sequence in this assay (Q01726 whole entry): as above

Melanocortin receptor 3 [7] = target: T4, Melanocortin receptor 3; experiment: Agonist activity at human MC3R stably expressed in human Flp-In-293 cells assessed as cAMP accumulation incubated for 45 mins in presence of IBMX by Lance Ultra cAMP assay; format: functional, cell-based
Melanocortin receptor 5 [8] = target: T1, Melanocortin receptor 5; experiment: Displacement of sCy5-MT-I from human MC5R stably expressed in human HEK293 cells incubated for 2 hrs by Cheng-Prusoff equation based FACS analysis; format: cell-based
Melanocortin receptor 4 [9] = target: T2, Melanocortin receptor 4; experiment: Displacement of sCy5-MT-I from human MC4R stably expressed in human HEK293 cells incubated for 2 hrs by Cheng-Prusoff equation based FACS analysis; format: cell-based; conditions: for Ki: read-out: pKi (converted)
[10] = target: T3, Melanocyte-stimulating hormone receptor; experiment: Agonist activity at human MC1R stably expressed in human Flp-In-293 cells assessed as cAMP accumulation at 1 uM incubated for 45 mins in presence of IBMX by Lance Ultra cAMP assay; format: functional, cell-based; conditions: filed as agonist
Target sequence in this assay (Q01726 whole entry, looked up): as the sequence (Q01726 whole entry) above

Melanocortin receptor 5 [11] = target: T1, Melanocortin receptor 5; experiment: Agonist activity at human MC5R stably expressed in human Flp-In-293 cells assessed as cAMP accumulation incubated for 45 mins in presence of IBMX by Lance Ultra cAMP assay; format: functional, cell-based

T4 sequence (P41968 whole entry): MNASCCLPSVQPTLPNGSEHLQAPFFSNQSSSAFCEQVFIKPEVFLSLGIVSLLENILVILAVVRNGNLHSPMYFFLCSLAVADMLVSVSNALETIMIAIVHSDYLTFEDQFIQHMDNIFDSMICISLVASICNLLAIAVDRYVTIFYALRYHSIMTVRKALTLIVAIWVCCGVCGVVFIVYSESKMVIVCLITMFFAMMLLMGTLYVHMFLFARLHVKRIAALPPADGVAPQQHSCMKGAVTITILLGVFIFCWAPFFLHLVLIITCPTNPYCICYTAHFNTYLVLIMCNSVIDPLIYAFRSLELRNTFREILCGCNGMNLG
T1 sequence (P33032 whole entry): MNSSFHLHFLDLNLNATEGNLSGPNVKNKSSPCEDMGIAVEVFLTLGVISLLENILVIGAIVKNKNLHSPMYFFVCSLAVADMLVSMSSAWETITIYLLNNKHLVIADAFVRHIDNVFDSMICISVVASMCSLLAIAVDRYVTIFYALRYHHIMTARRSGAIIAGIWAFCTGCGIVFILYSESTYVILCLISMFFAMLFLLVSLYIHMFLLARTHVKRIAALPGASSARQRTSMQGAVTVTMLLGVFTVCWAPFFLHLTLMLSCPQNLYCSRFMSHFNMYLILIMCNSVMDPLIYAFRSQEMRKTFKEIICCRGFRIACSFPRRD
T2 sequence (P32245 whole entry): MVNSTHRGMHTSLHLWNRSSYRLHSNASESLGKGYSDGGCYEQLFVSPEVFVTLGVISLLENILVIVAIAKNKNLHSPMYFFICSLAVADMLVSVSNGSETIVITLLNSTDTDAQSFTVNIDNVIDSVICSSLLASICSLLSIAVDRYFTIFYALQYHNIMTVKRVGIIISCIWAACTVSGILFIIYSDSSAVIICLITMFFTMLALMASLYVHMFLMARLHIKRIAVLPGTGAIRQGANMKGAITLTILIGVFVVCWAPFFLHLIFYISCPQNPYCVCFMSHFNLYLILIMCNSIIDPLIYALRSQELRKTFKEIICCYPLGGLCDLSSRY

Row | SMILES | Activity (Melanocortin receptor 5 [1]; filed as agonist) [%] | pEC50 (Melanocortin receptor 4 [2]; read-out: EC50) | pEC50 ([3]; read-out: EC50) | EC50 [3] [nM] | Activity (Melanocortin receptor 3 [4]) [%] | Activity (Melanocortin receptor 5 [1]) [%] | pKi (Melanocortin receptor 3 [5]) | EC50 (Melanocortin receptor 4 [2]) [nM] | pKi [6] | pEC50 (Melanocortin receptor 3 [7]) | pKi (Melanocortin receptor 5 [8]) | Ki (Melanocortin receptor 4 [9]) [nM] | Activity [10] [%] | pEC50 (Melanocortin receptor 5 [11]) | pKi (Melanocortin receptor 4 [9]; read-out: Ki)
1 | C[C@@H]1NC(=O)c2cc(NC(=S)Nc3ccc4c(c3)C(=O)OC43c4ccc(O)cc4Oc4cc(O)ccc43)ccc2SC[C@@H](C(N)=O)NC(=O)[C@H](Cc2c[nH]c3ccccc23)NC(=O)[C@H](CCCNC(=N)N)NC(=O)[C@@H](Cc2ccccc2)NC(=O)[C@H](Cc2c[nH]cn2)NC1=O | 64 | 9.01 | 7.62 | 20.9 | 73 | – | – | – | – | – | – | – | – | – | –
2 | C[C@H]1NC(=O)c2cc([N+](=O)[O-])ccc2SC[C@@H](C(N)=O)NC(=O)[C@H](Cc2c[nH]c3ccccc23)NC(=O)[C@H](CCCNC(=N)N)NC(=O)[C@@H](Cc2ccccc2)NC(=O)[C@H](Cc2c[nH]cn2)NC1=O | – | – | – | 1.58 | – | 15 | 7.10 | 1 | 8.95 | 6.70 | < 6.00 | 0.102 | – | – | –
3 | N#Cc1ccc2c(c1)C(=O)N[C@@H](Cc1c[nH]cn1)C(=O)N[C@H](Cc1ccccc1)C(=O)N[C@@H](CCCNC(=N)N)C(=O)N[C@@H](Cc1c[nH]c3ccccc13)C(=O)N[C@H](C(N)=O)CS2 | – | – | – | – | 44 | 0 | 6.18 | 63.1 | 6.80 | – | < 6.00 | 0.794 | 58 | – | –
4 | N=C(N)NCCC[C@@H]1NC(=O)[C@@H](Cc2ccccc2)NC(=O)[C@H](Cc2cnc[nH]2)NC(=O)c2cc([N+](=O)[O-])ccc2SC[C@@H](C(N)=O)NC(=O)[C@H](Cc2c[nH]c3ccccc23)NC1=O | – | – | – | – | – | 3 | – | – | – | – | – | – | – | – | –
5 | NC(=O)[C@@H]1CSc2ccc([N+](=O)[O-])cc2C(=O)N[C@@H](Cc2cnc[nH]2)C(=O)N[C@H](Cc2ccccc2)C(=O)N[C@@H](CCCN=C(N)N)C(=O)N[C@@H](Cc2c[nH]c3ccccc23)C(=O)N1 | – | – | – | 1260 | – | – | 6.50 | 501 | 6.90 | 5.30 | < 6.00 | 1.58 | – | – | –
6 | C[C@H]1NC(=O)c2cc(C(=N)N)ccc2SC[C@@H](C(N)=O)NC(=O)[C@H](Cc2c[nH]c3ccccc23)NC(=O)[C@H](CCCNC(=N)N)NC(=O)[C@@H](Cc2ccccc2)NC(=O)[C@H](Cc2c[nH]cn2)NC1=O | 41 | – | – | 4.79 | – | – | 6.83 | 0.275 | 8.45 | 7.04 | < 6.00 | 0.162 | – | – | –
7 | C[C@@H]1NC(=O)c2cc([N+](=O)[O-])ccc2SC[C@@H](C(N)=O)NC(=O)[C@H](Cc2c[nH]c3ccccc23)NC(=O)[C@H](CCCNC(=N)N)NC(=O)[C@@H](Cc2ccccc2)NC(=O)[C@H](Cc2c[nH]cn2)NC1=O | – | – | – | 63.1 | – | 11 | 6.29 | 20 | 7.25 | 5.90 | < 6.00 | 3.02 | – | – | –
8 | C#Cc1ccc2c(c1)C(=O)N[C@H](C)C(=O)N[C@@H](Cc1c[nH]cn1)C(=O)N[C@H](Cc1ccccc1)C(=O)N[C@@H](CCCNC(=N)N)C(=O)N[C@@H](Cc1c[nH]c3ccccc13)C(=O)N[C@H](C(N)=O)CS2 | – | – | – | 2.24 | – | – | 6.88 | 0.447 | 8.47 | 7.46 | < 6.00 | 0.457 | – | 6.43 | –
9 | N=C(N)NCCC[C@@H]1NC(=O)[C@@H](Cc2ccccc2)NC(=O)[C@H](Cc2c[nH]cn2)NC(=O)c2cc(N)ccc2SC[C@@H](C(N)=O)NC(=O)[C@H](Cc2c[nH]c3ccccc23)NC1=O | 60 | – | – | 50.1 | 42 | – | 6.09 | 316 | 6.57 | – | < 6.00 | 0.331 | – | – | –
10 | C[C@H]1NC(=O)c2cc(C#N)ccc2SC[C@@H](C(N)=O)NC(=O)[C@H](Cc2c[nH]c3ccccc23)NC(=O)[C@H](CCCNC(=N)N)NC(=O)[C@@H](Cc2ccccc2)NC(=O)[C@H](Cc2c[nH]cn2)NC1=O | – | – | – | 2.69 | – | 34 | 6.58 | 0.501 | 8.42 | 7.40 | < 6.00 | 0.141 | – | – | –
11 | C[C@@H]1NC(=O)[C@H](Cc2c[nH]c3ccccc23)NC(=O)[C@H](CCCNC(=N)N)NC(=O)[C@@H](Cc2ccccc2)NC(=O)[C@H](Cc2c[nH]cn2)NC(=O)c2cc([N+](=O)[O-])ccc2SC[C@@H](C(N)=O)NC1=O | – | – | – | 9.77 | – | 5 | 8.10 | 6.31 | 8.90 | 7.50 | < 6.00 | 1.26 | – | – | –
12 | C[C@@H]1NC(=O)c2cc(-c3cn([C@@H]4O[C@H](CO)[C@@H](O)[C@H](O)[C@H]4O)nn3)ccc2SC[C@@H](C(N)=O)NC(=O)[C@H](Cc2c[nH]c3ccccc23)NC(=O)[C@H](CCCNC(=N)N)NC(=O)[C@@H](Cc2ccccc2)NC(=O)[C@H](Cc2c[nH]cn2)NC1=O | – | – | – | 16.6 | – | – | 6.76 | 0.135 | 8.60 | 7.20 | < 6.00 | – | – | 6.53 | 10.22
13 | C#Cc1ccc2c(c1)C(=O)N[C@@H](Cc1c[nH]cn1)C(=O)N[C@H](Cc1ccccc1)C(=O)N[C@@H](CCCNC(=N)N)C(=O)N[C@@H](Cc1c[nH]c3ccccc13)C(=O)N[C@H](C(N)=O)CS2 | – | – | – | 34.7 | – | 14 | 6.13 | 89.1 | 7.19 | 6.50 | < 6.00 | 0.234 | – | – | –
14 | C[C@H]1NC(=O)c2cc(N)ccc2SC[C@@H](C(N)=O)NC(=O)[C@H](Cc2c[nH]c3ccccc23)NC(=O)[C@H](CCCNC(=N)N)NC(=O)[C@@H](Cc2ccccc2)NC(=O)[C@H](Cc2c[nH]cn2)NC1=O | – | – | – | 10 | – | 17 | 7.01 | 1.58 | 8.30 | 7.30 | < 6.00 | 0.148 | – | – | –
15 | C[C@H]1NC(=O)[C@H](Cc2c[nH]c3ccccc23)NC(=O)[C@H](CCCNC(=N)N)NC(=O)[C@@H](Cc2ccccc2)NC(=O)[C@H](Cc2c[nH]cn2)NC(=O)c2cc([N+](=O)[O-])ccc2SC[C@@H](C(N)=O)NC1=O | – | – | – | 33.9 | – | 1 | 6.36 | 5.01 | 7.10 | 8.10 | < 6.00 | 0.871 | – | – | –
